Where a name gives a salt, the structure may show the parent alone.
What follows are compounds tested against T1, HPV(11) E1 helicase enzyme (MBP fusion protein), ATPase activity (Human papillomavirus 11, UniProt P04014) (assay: E1 ATPase activity assay ([γ33P]ATP hydrolysis, charcoal separation)). Conditions: 20 μM ATP, 1 hour at 37° C., pH 7.0, read-out: Activity (IC50, concentration of test compound which inhibits enzyme activity by 50%).
T1 construct: made in house; host or cells: SF9 insect cells, baculovirus expression system
Type: biochemical
Protocol: For assaying E1 ATPase activity the HPV E1 enzyme has been prepared and purified as follows:
The HPV(11) E1 used in this assay is expressed as a maltose binding protein (MBP) fusion protein from SF9 cells using a baculovirus expression system. Frozen pellets of these cells are thawed by adding the pellet directly into a buffer at 4 OC containing 50 mM Tris-HCl pH 7.5, 20 mM dithiothreitol (DTT), 1 mM EDTA, 600 mM NaCl, 20% glycerol and 3 “Complete” protease inhibitor tablets/50 ml (Boehringer Mannheim cat.no.1 697 498). The cell suspension is then sonicated for 3×10 seconds before centrifuging at 18000 rpm for 30 minutes to remove the cell debris. The clarified extract is then passed down a DE52 ion exchange column which is washed with a buffer containing 50 mM Tris-HCl pH 7.5, 2 mM DTT, 1 mM EDTA, 600 mM NaCl and 20% glycerol. The column flow through plus the first 10 mls of wash buffer are then passed down an amylose affinity column which binds MBP tagged proteins. This column is washed with 3 column bed volumes of the wash buffer before being eluted with wash buffer containing 10 mM maltose. The eluted protein peak containing purified HPV(11) E1 is then dialysed overnight against 2 L of buffer containing 20 mM Tris-HCl pH 7.5, 2 mM DTT, 20 mM NaCl and 20% glycerol. The dialyzed material is used in the assay.
E1 ATPase activity can be measured as follows:
The standard reaction contains 50 mM MOPs KOH pH 7.0, 500 μM MgCl2, 20 μM ATP, 50 mM NaCl, 40 μl of a suitably diluted enzyme extract and 10 μl of inhibitor in a final volume of 100 μl. The ATP contains 0.1 μCi [γ^33P]ATP per reaction. The enzyme diluent contains 50 mM MOPs KOH pH7.0 and 1 mg/ml BSA. The inhibitor is diluted to give a range of concentrations in neat DMSO. Reaction tubes are incubated for 1 hour at 37° C. (producing linear kinetics) after which the reaction is terminated by heat inactivation at 85° C. for 2 minutes. 500 μl 15% activated charcoal in PBS is then added to each reaction. The activated charcoal used is 100-400 mesh untreated powder (Sigma cat No C-5260); prior to use in the assay this is washed in PBS several times and allowed to settle out under gravity, any fine particles still in suspension being decanted off after each wash. The reactions are left on ice for 1 hour after which the charcoal is pelleted out by centrifugation at 14000 rpm for 10 minutes. The charcoal pellet contains unconverted [γ^33P]ATP, whilst any free inorganic ^33P, the reaction product, will remain in the supernatant. The amount of radioactivity present in 300 μl of supernatant is then measured by scintillation spectrophotometry.
The results can be calculated as follows:
The degree of inhibition at each inhibitor concentration is expressed as a percentage of the control reaction (100%) after subtracting a measured blank value, which represents the amount of free inorganic ^33P present in a reaction containing heat inactivated enzyme. An IC50 value (concentration of test compound which inhibits enzyme activity by 50%) is then calculated from a dose response curve of log10 inhibitor concentration against percentage of the control reaction.

T1 sequence (P04014 whole entry, the tested form may be a part): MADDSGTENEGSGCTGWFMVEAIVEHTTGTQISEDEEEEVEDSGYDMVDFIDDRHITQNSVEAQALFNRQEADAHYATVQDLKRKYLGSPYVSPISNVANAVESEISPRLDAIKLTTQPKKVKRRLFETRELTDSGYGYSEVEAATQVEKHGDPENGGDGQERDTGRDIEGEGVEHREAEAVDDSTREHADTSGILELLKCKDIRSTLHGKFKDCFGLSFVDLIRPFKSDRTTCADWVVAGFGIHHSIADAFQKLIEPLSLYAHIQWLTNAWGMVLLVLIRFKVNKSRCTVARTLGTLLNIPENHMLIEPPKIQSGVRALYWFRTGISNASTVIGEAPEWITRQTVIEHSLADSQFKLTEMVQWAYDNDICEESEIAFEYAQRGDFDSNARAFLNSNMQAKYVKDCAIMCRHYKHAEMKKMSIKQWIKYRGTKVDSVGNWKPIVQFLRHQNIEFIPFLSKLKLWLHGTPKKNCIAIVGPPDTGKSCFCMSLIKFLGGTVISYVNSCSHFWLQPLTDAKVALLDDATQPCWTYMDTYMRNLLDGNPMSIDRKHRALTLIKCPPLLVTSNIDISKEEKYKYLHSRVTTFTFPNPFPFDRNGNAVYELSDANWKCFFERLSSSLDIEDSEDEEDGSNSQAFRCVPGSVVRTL

SMILES | IC50 [µM]
CN1CCN=C(/C=C/c2cccc(Oc3ccccc3)c2)c2ccccc21 [Example 3, (E)-2,3-Dihydro-1-methyl-5-(3-phenoxystyryl)-1H-1,4-benzodiazepine dihydrochloride] | 2.4
CN1CCN=C(/C=C/c2cnccc2-c2cccc(Br)c2)c2ccccc21 [Example 6, (E)-5-[2-[4-(3-Bromophenyl)-3-pyridyl]vinyl]-2,3-dihydro-1-methyl-1H-1,4-benzo-diazepine dihydrochloride] | 4.2
CN1CCN=C(/C=C/c2ccc(Cl)c(Cl)c2)c2cccnc21 [Example 29, (E)-5-(3,4-Dichlorostyryl)-2,3-dihydro-1-methyl-1H-pyrido[2,3-e][1,4]diazepine hydrochloride (1:3)] | 3
FC(F)(F)c1cccc2c1NCCN=C2/C=C/c1ccc(Cl)c(Cl)c1 [Example 38, (E)-5-(3,4-Dichlorostyryl)-9-(trifluoromethyl)-2,3-dihydro-1H-1,4-benzodiazepine dihydrochloride] | 5.6
CN1CCN=C(/C=C/c2cnccc2-c2cccc(Br)c2)c2ccc(Br)cc21 [Example 42, (E)-8-Bromo-5-[2-[4-(3-bromophenyl)-3-pyridyl]vinyl]-2,3-dihydro-1-methyl-1H-1,4-benzodiazepine dihydrochloride] | 2.4
CN1CCN=C(/C=C/c2ccc(C#N)c(SCc3ccc(Cl)cc3)n2)c2ccc(Br)cc21 [Example 44, (E)-6-[2-(8-Bromo-2,3-dihydro-1-methyl-1H-1,4-benzodiazepin-5-yl)vinyl]-2-(4-chlorobenzylthio)-3-pyridinecarbonitrile dihydrochloride] | 2.5
Cc1cc(C)n(COc2cccc(/C=C/C3=NCCN(C)c4ccccc43)c2)n1 [Example 92, (E)-2,3-Dihydro-1-methyl-5-[3-[(3,5-dimethyl-1-pyrazolyl)methoxy]-styryl]-1H-1,4-benzodiazepine dihydrochloride] | 19
CN1CCN=C(/C=C/c2ccccc2Sc2ccc(Cl)cc2)c2ccccc21 [Example 121, (E)-5-[2-(4-Chlorophenylthio)styryl]-2,3-dihydro-1-methyl-1H-1,4-benzodiazepine dihydrochloride] | 1.6
CC(C)N1CCN=C(/C=C/c2ccc(Cl)c(Cl)c2)c2ccccc21 [Example 123, (E)-5-(3,4-Dichlorostyryl)-2,3-dihydro-1-isopropyl-1H-1,4-benzodiazepine dihydrochloride] | 2
O=C(c1ccccc1)N1CCN=C(/C=C/c2ccc(Cl)c(Cl)c2)c2ccccc21 [Example 125, (E)-1-Benzoyl-5-(3,4-dichlorostyryl)-2,3-dihydro-1H-1,4-benzodiazepine hydrochloride] | 5.6
COC(=O)c1ccc(CN2CCN=C(/C=C/c3ccc(Cl)c(Cl)c3)c3ccccc32)cc1 [Example 127, Methyl (E)4-[[5-(3,4-dichlorostyryl)-2,3-dihydro-1H-1,4-benzodiazepin-1-yl]methyl]benzoate dihydrochloride] | 2.2
O=C(O)c1ccc(CN2CCN=C(/C=C/c3ccc(Cl)c(Cl)c3)c3ccccc32)cc1 [Example 132, (E)-4-[[5-(3,4-dichlorostyryl)-2,3-dihydro-1H-1,4-benzodiazepin-1-yl]methyl]benzoic acid dihydrochloride] | 4.4
O=C(O)c1cccc(CN2CCN=C(/C=C/c3ccc(Cl)c(Cl)c3)c3ccccc32)c1 [Example 133, (E)-3-[[5-(3,4-Dichlorostyryl)-2,3-dihydro-1H-14-benzodiazepin-1-yl]methyl]benzoic]acid hydrochloride] | 3.1
O=C(O)CN1CCN=C(/C=C/c2ccc(Cl)c(Cl)c2)c2ccccc21 [Example 137, (E)-5-(3,4-Dichlorostyryl)-2,3-dihydro-1H-1,4-benzodiazepine-1-acetic acid] | 20
CCOC(=O)c1ncn2c1CN=C(/C=C/c1ccc(Cl)c(Cl)c1)c1ccccc1-2 [Example 139, Ethyl (E)-6-(3,4-dichlorostyryl)-4H-imidazo[1,5-a]benzodiazepine-3-carboxylate] | 20
CN1CCN=C(/C=C/c2ccc(Cl)c(Cl)c2)c2cc(NS(C)(=O)=O)ccc21 [Example 162, (E)-N-[5-(3,4-Dichlorostyryl)-2,3-dihydro-1-methyl-1H-1,4-benzodiazepin-7-yl]methanesulfonamide] | 8.6
CN1CCN=C(/C=C/c2ccc(Cl)c(Cl)c2)c2ccc(-c3cccs3)cc21 [Example 164, (E)-5-(3,4-Dichlorostyryl)-2,3-dihydro-1-methyl-8-(2-thienyl)-1H-1,4-benzodiazepine hydrochloride] | 12
